Laboratory results from US12097189B1, “Pharmaceutical composition for modified release” (ASTELLAS PHARMA INC., priority 2024, dated 2024).

Experiments:
[1] = Elimination half-life of compound A; settings: in vivo; read-out: elimination half-life (T1/2)
Text: Taking into consideration the results of the clinical trial described above, the present inventors conducted intensive studies to design the formulation by paying attention to the control of a release rate of the drug from a formulation to the extent that the release is not affected by food intake or the like, rather than the addition of release control.

[2] = Pharmacokinetics (PK) test of immediate release formulation (capsule formulation) in human: Cmax and heart rate; type: in vivo; settings: healthy subjects; immediate release capsules, 0.1 mg to 340 mg
Procedure: An immediate release formulation (capsule formulation) containing compound A was administered to healthy subjects in a fasted state, before 30 min from the intake of a meal, or after 30 min from the meal, and the drug concentration in the plasma was measured. The immediate release formulations (capsule formulations) containing 0.1 mg, 1 mg, 5 mg, 20 mg, and 80 mg of the compound A were used in combinations as needed so that the dose of compound A became 0.1 mg, 1 mg, 3 mg, 10 mg, 30 mg, 100 mg, 160 mg, 240 mg, and 340 mg.

half-life [1]: 18 to 24 h
Structure (SMILES): Nc1nc(CC(=O)Nc2ccc(CCNC[C@H](O)c3ccccc3)cc2)cs1 [compound A, (R)-2-(2-aminothiazol-4-yl)-4′-[2-[(2-hydroxy-2-phenylethyl)amino]ethyl]acetic acid anilide]
relation between maximum plasma concentration (Cmax) and increase in heart rate from the base line [2]: a positive correlation was observed
